Data: US8518882B2, “Methods and compositions for ameliorating or inhibiting decline in memory or intelligence or improving same” (priority 1998, dated 2013)

Assays:
PC12 cells [1] = test: Uptake of uridine into PC12 cells; type: cell-based
IP signaling = test: PI turnover / inositol phosphate formation in NGF-differentiated PC12 cells; type: cell-based; details: for Formation of IP: NGF-differentiated PC12 cells, 1 hour, UTP 100 μM (p<0.05), uridine 50 μM (p<0.01)
Procedure: Analysis of PI turnover was performed as described by (Nitsch R M et al, J Neurochem 69: 704-12, 1997). Briefly, cells were labeled metabolically for 36 h with 1.25 microCurie (μCi)/dish of myo-[2-^3H]inositol (17.0 Curie/mmol; Amersham Biosciences) in serum-free MEM, washed twice with Hank's balanced salt solution (HBSS), and treated for 15 min with 10 mM lithium chloride in HBSS. Drugs were added in the presence of 10 mM lithium for 60 min at 37° C. Cells were lysed with ice-cold methanol, and lipids were removed by extraction with chloroform/methanol/water (2:2:1 by volume). Labeled water-soluble inositol phosphates were separated from free [^3H]inositol by ion-exchange chromatography, using AG 1-X8 columns (Bio-Rad), and 1M ammonium formate and 0.1M formic acid as eluent. Radioactivity was quantified by liquid scintillation spectrometry.

PC12 cells [2] = test: NGF-induced neurite outgrowth, branching and length in PC12 cells; type: cell-based
Procedure: (§1) PC12 cells were maintained in Minimal Essential Medium (MEM; Invitrogen, Carlsbad, Calif.) supplemented with 10% fetal bovine serum (FBS) at 37° C. Experimental incubations were for 2 or 4 days in medium containing 50 ng/ml mouse 2.5 S (2.5 subunit) NGF and 1% FBS, with or without test compounds. NGF and FBS were obtained from Invitrogen.
PC12 cells were sparsely plated on collagen-coated 60 mm culture dishes in MEM containing 1% fetal bovine serum. […] All treatments were performed 24 h after plating. At the end of the treatment period, images were obtained with a phase-contrast Zeiss Axioplan 2 microscope, using OpenLab software. Six digital images were captured for each dish, for a total of 18 to 24 images per treatment group Approximately 300 cells were quantified for each treatment group for each experiment. Experiments were performed in triplicate. Quantification of neurites, including neurite branching and neurite length, was performed by one more researchers blinded to experimental groups Neurite length was measured using the public domain NIH software “Image J.” Processes longer than the diameter of the cell body were counted as neurites. Only process-bearing cells were analyzed.

PC12 cells [3] = test: Intracellular UTP and CTP levels in PC12 cells by HPLC; type: cell-based; details: 2 days with NGF; uridine 50 μM, UTP 100 μM, cytidine 50 μM
Procedure: (§2) Brain tissue or cells was dissolved in methanol/chloroform (1:2 vol/vol), centrifuged, and the aqueous phase was dried under vacuum, resuspended in 100-200 μL water and separated by HPLC on an ion-exchange column (Alltech Hypersil APS-2, 5 μM, 250×4.6 mm). CDP-choline was eluted with a linear gradient of NaH2PO4 buffers A (1.75 mM NaH2PO4, pH 2.9) and B (500 mM, pH 4.5), which allowed resolution of CDP-choline from closely co-eluting substances such as UMP over 40 min. The retention time for CDP-choline was 9.5 min. Individual nucleotide peaks were detected by UV absorption at […], and were identified by comparison with the positions of authentic standards, as well as by the addition of nucleotide standards to selected samples.
Levels of intracellular UTP and CTP were analyzed by HPLC as described for Example 5, except that 5 mM NaH2PO4, pH 2.65 was used as buffer A.

[4] = Conversion of uridine to cytidine in plasma and brain of gerbils; type: in vivo; details: 250 mg/kg uridine orally, 60 min
PC12 cells [5] = test: Intracellular CDP-choline levels in PC12 cells; type: cell-based; details: after 50 minutes
Procedure: as §2, §1

NF-70 = NF-70 levels in PC12 cells (Western blotting); type: cell-based
Procedure: as §1
(§3) Equal amounts of protein (40 μg protein/lane) were loaded for sodium dodecyl sulfate-polyacrylamide gel electrophoresis (4-15% SDS PAGE; Bio-Rad, Hercules, Calif.). Prior to gel electrophoresis, bromphenol blue solution (0.07%) was added to each sample. Proteins were separated, transferred onto polyvinylidene difluoride (PVDF) membranes (Immobilon-P, Millipore), and blocked with 5% bovine serum albumin (Tris-buffered saline/0.15% Tween 20) for 1 h. After 3 10 min rinses in Tris-buffered saline (TBST), blots were incubated in TBST with various antibodies against the proteins of interest, including NF-70, NF-M (1: 2000, 1: 5000, respectively; Calbiochem, La Jolla, Calif.) at 4° C. overnight on an orbital shaker. […] Films were digitized using a Supervista S-12 scanner with a transparency adapter (UMAX Technologies, Freemont, Calif.). Analysis was performed using the public domain NIH Image program (NIH V.1.61).

NF-M = NF-M levels in PC12 cells (Western blotting); type: cell-based
Procedure: as §1, §3

[6] = tested on: P2Y2, P2Y4 and P2Y6 receptors; test: P2Y receptor expression in NGF-differentiated PC12 cells; type: cell-based; details: compared with cells exposed to NGF alone
Procedure: Western blots utilized rabbit anti-P2Y2, anti-P2Y4 (both from Calbiochem); or rabbit anti-P2Y6 (Novus Biologicals, Littleton, Colo.).
PC 12 cells were treated as described above, except they were grown on 12 mm glass cover slips (A Daigger & Co., Vernon Hills, Ill.) coated with collagen. Proteins were visualized using immunofluorescence. Briefly, the cells were fixed with 4% paraformaldehyde, permeabilized with 0.25% Triton X-100, blocked in 10% normal goat serum, and incubated overnight in the appropriate antibodies (mouse anti-NF-70, and either rabbit anti-P2Y2, rabbit anti-P2Y4 or rabbit anti-P2Y6). For P2Y2 and P2Y4 visualization, control cultures were incubated with primary antibody plus a control antigen in order to ensure that the immuno-staining would be specific. Control antigen was not available for the P2Y6 receptor. Cells were then incubated in fluorochrome-conjugated secondary antibodies for 1 hour (goat anti-rabbit ALEXA 488 and goat anti-mouse ALEXA 568; Molecular Probes, Eugene, Oreg.) and mounted on glass slides with mounting media with or without DAPI (Vector Laboratories, Burlingame, Calif.). Control antigens provided with the primary antibodies were used to ensure that immuno-staining was specific. Digital images were obtained on a Zeiss (Oberkochen, Germany) Axioplan microscope with OpenLab software, using a Zeiss Plan-Neofluor 40× oil-immersion objective.

## Cc1nc(N=Nc2ccc(S(=O)(=O)O)cc2S(=O)(=O)O)c(COP(=O)(O)O)c(C=O)c1O [PPADS, pyridoxal-phosphate-6-azophenyl-2′,4′ disulfonic acid, reference compound]
PC12 cells [1]
  Inhibition of uptake of uridine into PC12 cells: None of the P2Y receptor antagonists inhibited the uptake of uridine
IP signaling; PPADS 100 μM
  Block of stimulation of IP signaling by UTP: significantly (p<0.05) blocked

## Nc1c(S(=O)(=O)O)cc(Nc2ccc(Nc3nc(Cl)nc(Nc4cccc(S(=O)(=O)O)c4)n3)c(S(=O)(=O)O)c2)c2c1C(=O)c1ccccc1C2=O [RB-2, reactive blue 2]
PC12 cells [1]
  Inhibition of uptake of uridine into PC12 cells: None of the P2Y receptor antagonists inhibited the uptake of uridine

## O=c1ccn([C@@H]2O[C@H](COP(=O)(O)OP(=O)(O)OP(=O)(O)O)[C@@H](O)[C@H]2O)c(=O)[nH]1 [UTP, uridine-5′-triphosphate]
PC12 cells [2]; with NGF, 10 and 50 μM, 4 days, vs NGF only
  Neurite outgrowth: significantly (p<0.01) enhanced
PC12 cells [3]
  Intracellular CTP levels: did not significantly affect
  Intracellular UTP levels: did not significantly affect
IP signaling
  Formation of IP: significantly increased

## Nc1ccn([C@@H]2O[C@H](CO)[C@@H](O)[C@H]2O)c(=O)n1 [cytidine, reference compound]
PC12 cells [2]; NGF-exposed cells, cytidine
  Neurite outgrowth: had no effect on neurite outgrowth
PC12 cells [3]
  Intracellular CTP levels: did not significantly affect
  Intracellular UTP levels: did not significantly affect

## Cc1ccc(C(=O)Nc2ccc(S(=O)(=O)O)c3cc(S(=O)(=O)O)cc(S(=O)(=O)O)c23)cc1NC(=O)c1cccc(NC(=O)Nc2cccc(C(=O)Nc3cc(C(=O)Nc4ccc(S(=O)(=O)O)c5cc(S(=O)(=O)O)cc(S(=O)(=O)O)c45)ccc3C)c2)c1 [suramin]
PC12 cells [1]
  Inhibition of uptake of uridine into PC12 cells: None of the P2Y receptor antagonists inhibited the uptake of uridine

## O=c1ccn([C@@H]2O[C@H](CO)[C@@H](O)[C@H]2O)c(=O)[nH]1 [uridine]
[4]
  Conversion to cytidine in brain versus plasma: more efficiently converted to cytidine than in plasma
PC12 cells [5]
  Intracellular CDP-choline levels: statistically significant increase
PC12 cells [2]; NGF-differentiated cells
  Average neurite length: did not significantly affect
PC12 cells [2]; absence of NGF, 50 μM, 2 or 4 days
  Production of neurites: did not result in the production of neurites
PC12 cells [2]; with NGF, 50 μM, 4 days
  Number of neurite branch points per cell: significantly (p<0.01) increased
PC12 cells [2]; with NGF, 2-day treatment or lower concentrations (10, 25 μM)
  Number of neurites per cell: had no effect
NF-70; NGF plus 50 μM, 4 days, vs NGF only, p<0.01
  NF-70 expression: increased
NF-70; absence of NGF
  NF-70 level: had no effect
NF-M; NGF plus 50 μM, 4 days, vs NGF only, p<0.001
  NF-M expression: increased
NF-M; absence of NGF
  NF-M level: had no effect
PC12 cells [3]
  Intracellular CTP levels: significantly (p<0.05) increased
  Intracellular UTP levels: significantly (p<0.05) increased
[6]
  Expression of P2Y2, P2Y4 and P2Y6 receptors: did not affect the expression
IP signaling
  Formation of IP: significantly increased
